Data set [1] deals with HTLV-III/LAV. The experiment in a line: Inhibition of HTLV-III/LAV cytopathic effect in MT-2 cells (visual inspection). It counts as cell-based. Conditions: for % Apparent CPE (destroyed cells / total cells scored): MT-2 cells, day 7 post-infection. A general note: Damage to the host cells serves as the signal in cytopathic effect assays.
In data set [2] the test system is HTLV-III/LAV. In words: Fluorescent assay of inhibition of HTLV-III/LAV in MT-2 cells (monoclonal antibody αp18). Format: cell-based. The conditions noted are these: day 7 post-infection.
The nature of data set [3]: Water solubility (compared with AZT). It counts as physicochemical. The conditions noted are these: compared with 3'-azido-3'-deoxythymidine (AZT).
Data set [4] concerns retroviruses, e.g., murine leukemia virus and HTLV III/LAV virus. The experiment in a line: Antiviral activity against retroviruses (general statement). It counts as cell-based. The conditions noted are these: murine leukemia virus and HTLV III/LAV virus (the AIDS virus).
The next data set relates to MT-2 cells. The experiment in a line: Viability of HTLV-III/LAV-infected MT-2 cells (trypan blue exclusion). The conditions noted are these: Homo sapiens, MT2, 168 h, day 7 post-infection, read-out: % Viable Cells (cells that excluded trypan blue / cells scored). It counts as cell-based.
Data set [5] has as its system Moloney Murine Leukemia Virus. The experiment in a line: Antiviral screening against Moloney Murine Leukemia Virus (M-MuLV) by XC-assay (plaque reduction, SC-1 cells). Format: cell-based. Conditions: SC1, SC-1/XC cells, Reed-Muench Method, read-out: ID50 (median inhibitory dose, virus plaque number). An excerpt:
Assay Procedure For Antiviral […] Against Moloney Murine Leukemia Virus (M-MuLV) By XC-Assay: The XC assay system is an indirect method for quantitation of murine-leukemia virus (MULV) originally described by […] et al, Proc. Nat'l. Acad Sci., 63, 753-758, (1969) and modified by W. Rowe et al, Virology, 42, 1136-1139, (1970). This test is based on the development of syncytial changes in the XC cell line when it is co-cultivated with mouse fibroblast cells (SC-1 cells) productively infected with MULV. The XC cell line was derived from a rat tumor induced by the Prague strain of Rous Sarcoma Virus (RSV) (J. Svobada et al, Folia Biol., 9, 77-81, […]). […] The following day, the cells were inoculated with 0.5 mL of a virus dilution containing 25 μg/mL of DEAE-dextran. […] The virus inoculum was then removed and replaced with 5mL of medium containing appropriate concentration of the test compound (two dishes/concentration). […] The medium (with or without the test compound) was changed at 48 hours. Five days after virus inoculation, the culture fluid was decanted and the cells were irradiated with a "GE" germicidal bulb for 30 seconds (60 ergs/mm^2 /sec UV-light). […] Virus plaques (i.e., areas of the cell sheet containing syncytial cells or focal masses of multinucleated giant cells) were counted using an inverted microscope.

In the next data set the test system is HTLV-III/LAV virus. The conditions noted are these: Mitsuya and Broder, supra; cited from earlier work.

Regarding `Nc1ccn([C@H]2C=C[C@@H](CO)O2)c(=O)n1` [2',3'-dideoxycytidin-2'-ene], the entries for the “% Apparent CPE (destroyed cells / total cells scored)” value in the data set with HTLV-III/LAV [1] (0.5 μM) and with HTLV-III/LAV [1] (1.0 μM) were 90 ± 0.0% and 0.5 ± 0.5%, respectively. The “effective dose compared with 2',3'-dideoxycytidine” value in the data set with HTLV-III/LAV [1] (HTLV-III/LAV infection in vitro, conclusion from Table 2 data) was “effective dose falls in the same range as 2',3'-dideoxycytidine”. The “antiviral activity against HTLV-III/LAV infection in vitro” value in the data set on HTLV-III/LAV [1] (conclusion from Table 2 data) is on record as “has antiviral activity against the HTLV-III/LAV infection in vitro”. The “% Fluoresence (fluorescent cells / total cells scored)” value was 5.6 ± 5.5% in the data set on HTLV-III/LAV [2] (0.5 μM) and 1.1 ± 0.1% with HTLV-III/LAV [2] (1.0 μM). For the same compound, the water solubility entry in data set [3] is reported as “much better water solubility than that of 3'-azido-3'-deoxythymidine (AZT)”. In data set [4], the “antiviral activity against retroviruses” value is reported as “has antiviral activity against retroviruses”. The viability at 0.5 µM in the data set on MT-2 cells stood at 22%. For the same compound, the viability at 1 µM in the data set on MT-2 cells was found to be 90%. Further, in data set [5], the IC50 turned out to be 3.7 µM.
Turning to `Nc1ccn([C@H]2CC[C@@H](CO)O2)c(=O)n1` [2',3'-dideoxycytidine, reference compound], the “% Apparent CPE (destroyed cells / total cells scored)” value stood at 40 ± 10% with HTLV-III/LAV [1] (0.5 μM) and 1.0 ± 0.0% with HTLV-III/LAV [1] (1.0 μM). In addition, the “% Fluoresence (fluorescent cells / total cells scored)” value in the data set with HTLV-III/LAV [2] (0.5 μM) was determined as 4.3 ± 0.3%; with HTLV-III/LAV [2] (1.0 μM) it was 0.2 ± 0.1%. For the same compound, the “potency against HTLV-III/LAV virus in culture” value in the data set with HTLV-III/LAV virus was “known potent compound against HTLV-III/LAV virus in culture”. Moreover, the viability at 0.5 µM with MT-2 cells is 75%. Besides, in the data set with MT-2 cells, the viability at 1 µM came to 96%. Further, the IC50 in data set [5] was 4 µM.

These data come from patent US6001818A, “Use of 2',3'-dideoxycytidin-2'-ene (2'- ,3'-dideoxy-2'3'-didehydrocytidine) in treating patients infected with retroviruses” (Yale University, priority 1991, dated 1999).
